Data on 28 molecules can be found in patent US8173638B2 (Boehringer Ingelheim International GmbH, priority 2006, dated 2012).

T1 sequence (P34972 whole entry): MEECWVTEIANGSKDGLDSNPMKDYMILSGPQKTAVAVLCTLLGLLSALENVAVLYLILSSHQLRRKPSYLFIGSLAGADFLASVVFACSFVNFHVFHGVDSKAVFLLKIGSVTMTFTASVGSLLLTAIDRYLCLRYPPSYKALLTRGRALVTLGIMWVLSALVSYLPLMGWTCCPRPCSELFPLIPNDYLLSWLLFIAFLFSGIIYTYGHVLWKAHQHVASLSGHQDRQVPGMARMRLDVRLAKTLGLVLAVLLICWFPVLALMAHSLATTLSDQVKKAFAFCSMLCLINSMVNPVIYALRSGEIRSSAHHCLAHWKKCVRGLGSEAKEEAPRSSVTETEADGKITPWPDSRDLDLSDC

The assay has as its target T1, human CB2R (Homo sapiens, UniProt P34972).
T1 construct: host or cells: CHO cells
In words: CB2R mediated modulation of cAMP synthesis. As to conditions: found through the use of the described assays (CB2 agonists); qualitative statement. In kind it is cell-based. As to the method:
B. CB2R Mediated Modulation of cAMP Synthesis:
CHO cells expressing human CB2R (Euroscreen) were plated at a density of 5000 cells per well in 384 well plates and incubated overnight at 37° C. After removing the media, the cells were treated with test compounds diluted in stimulation buffer containing 1 mM IBMX, 0.25% BSA and 10 uM Forskolin. The assay was incubated for 30 minutes at 37° C. Cells were lysed and the cAMP concentration was measured using DiscoverX-XS cAMP kit, following the manufacturer's protocol. In this setting, agonists will decrease forskolin induced production of cAMP while inverse agonists will further increase forskolin induced production of cAMP. EC50 of agonists were calculated as follows. The maximal amount of cAMP produced by forskolin compared to the level of cAMP inhibited by 1 uM CP55940 is defined as 100%. […] Data was analyzed using a four-parameter logistic model. (Model 205 of XLfit 4.0).
On to `CC(C)(C)c1cc(NC(=O)N2CCCN(C(=O)CN3CCSCC3)CC2)no1` [4-(2-Thiomorpholin-4-yl-acetyl)-[1,4]diazepane-1-carboxylic acid (5-tert-butyl-isoxazol-3-yl)-amide], for which the agonistic activity entry is “agonistic activity”.

For `O=C(CC1CCCC1)N1CCCN(C(=O)Nc2ccc(SC(F)(F)F)cc2)CC1` [4-(2-cyclopentyl-acetyl)-[1,4]diazepane-1-carboxylic acid (4-trifluoromethylsulfanyl-phenyl)-amide], the agonistic activity entry is listed as “agonistic activity”.

For `CC(C)c1ccc(NC(=O)N2CCCN(C(=O)CC(C)(C)C)CC2)cc1` [4-(3,3-Dimethyl-butyryl)-[1,4]diazepane-1-carboxylic acid (4-isopropyl-phenyl)-amide], the agonistic activity result is “agonistic activity”.

On to `CC(C)(C)CC(=O)N1CCCN(C(=O)Nc2ccc(C(C)(C)C)cc2)CC1` [4-(3,3-Dimethyl-butyryl)-[1,4]diazepane-1-carboxylic acid (4-tert-butyl-phenyl)-amide], for which the agonistic activity entry is reported as “agonistic activity”.

Regarding `CC(C)(C)CC(=O)N1CCCN(C(=O)Nc2ccc3ccccc3c2)CC1` [4-(3,3-Dimethyl-butyryl)-[1,4]diazepane-1-carboxylic acid naphthalen-2-ylamide], the agonistic activity result is “agonistic activity”.

In the case of `CC(C)(C)c1ccc(NC(=O)N2CCCN(C(=O)c3ccc(Cl)c(Cl)c3)CC2)cc1` [4-(3,4-Dichloro-benzoyl)-[1,4]diazepane-1-carboxylic acid (4-tert-butyl-phenyl)-amide], the agonistic activity entry was “agonistic activity”.

Take `O=C(Nc1ccc2ccccc2c1)N1CCCN(C(=O)c2ccc(Cl)c(Cl)c2)CC1` [4-(3,4-Dichloro-benzoyl)-[1,4]diazepane-1-carboxylic acid naphthalen-2-ylamide]: the agonistic activity result is listed as “agonistic activity”.

`CC(C)(C)c1ccc(NC(=O)N2CCCN(C(=O)c3cc(Cl)cc(Cl)c3)CC2)cc1` [4-(3,5-Dichloro-benzoyl)-[1,4]diazepane-1-carboxylic acid (4-tert-butyl-phenyl)-amide]: the agonistic activity result is “agonistic activity”.

Take `CC(C)c1ccc(NC(=O)N2CCCN(C(=O)c3cccc(Cl)c3)CC2)cc1` [4-(3-Chloro-benzoyl)-[1,4]diazepane-1-carboxylic acid (4-isopropyl-phenyl)-amide]: the agonistic activity result is reported as “agonistic activity”.

Take `CCCCc1ccc(NC(=O)N2CCCN(C(=O)CCC3CCCCC3)CC2)cc1` [4-(3-Cyclohexyl-propionyl)-[1,4]diazepane-1-carboxylic acid (4-butyl-phenyl)-amide]: the agonistic activity entry is “agonistic activity”.

Regarding `CC(C)c1ccc(NC(=O)N2CCCN(C(=O)CCC3CCCCC3)CC2)cc1` [4-(3-Cyclohexyl-propionyl)-[1,4]diazepane-1-carboxylic acid (4-isopropyl-phenyl)-amide], the agonistic activity result is recorded as “agonistic activity”.

Take `CC(C)(C)c1ccc(NC(=O)N2CCCN(C(=O)CCC3CCCCC3)CC2)cc1` [4-(3-Cyclohexyl-propionyl)-[1,4]diazepane-1-carboxylic acid (4-tert-butyl-phenyl)-amide]: the agonistic activity result is given as “agonistic activity”.

On to `O=C(CCC1CCCCC1)N1CCCN(C(=O)Nc2ccc3ccccc3c2)CC1` [4-(3-Cyclohexyl-propionyl)-[1,4]diazepane-1-carboxylic acid naphthalen-2-ylamide], for which the agonistic activity entry is “agonistic activity”.

Regarding `N#Cc1ccc(NC(=O)N2CCCN(C(=O)CCC3CCCC3)CC2)cc1` [4-(3-Cyclopentyl-propionyl)-[1,4]diazepane-1-carboxylic acid (4-cyano-phenyl)-amide], the agonistic activity result is on record as “agonistic activity”.

Turning to `CN(C)c1ccc(NC(=O)N2CCCN(C(=O)CCC3CCCC3)CC2)cc1` [4-(3-Cyclopentyl-propionyl)-[1,4]diazepane-1-carboxylic acid (4-dimethylamino-phenyl)-amide], the agonistic activity result is recorded as “agonistic activity”.

For the molecule `CCc1ccc(NC(=O)N2CCCN(C(=O)CCC3CCCC3)CC2)cc1` [4-(3-Cyclopentyl-propionyl)-[1,4]diazepane-1-carboxylic acid (4-ethyl-phenyl)-amide], the agonistic activity result is listed as “agonistic activity”.

Consider `CS(=O)(=O)c1ccc(NC(=O)N2CCCN(C(=O)CCC3CCCC3)CC2)cc1` [4-(3-Cyclopentyl-propionyl)-[1,4]diazepane-1-carboxylic acid (4-methanesulfonyl-phenyl)-amide], for which the agonistic activity entry is reported as “agonistic activity”.

Turning to `CSc1ccc(NC(=O)N2CCCN(C(=O)CCC3CCCC3)CC2)cc1` [4-(3-Cyclopentyl-propionyl)-[1,4]diazepane-1-carboxylic acid (4-methylsulfanyl-phenyl)-amide], the agonistic activity result is “agonistic activity”.

As to `CCCCCc1ccc(NC(=O)N2CCCN(C(=O)CCC3CCCC3)CC2)cc1` [4-(3-Cyclopentyl-propionyl)-[1,4]diazepane-1-carboxylic acid (4-pentyl-phenyl)-amide], the agonistic activity result was “agonistic activity”.

Turning to `CCCc1ccc(NC(=O)N2CCCN(C(=O)CCC3CCCC3)CC2)cc1` [4-(3-Cyclopentyl-propionyl)-[1,4]diazepane-1-carboxylic acid (4-propyl-phenyl)-amide], the agonistic activity entry is listed as “agonistic activity”.

For the molecule `O=C(CCC1CCCC1)N1CCCN(C(=O)Nc2ccc(C(F)(F)F)cc2)CC1` [4-(3-Cyclopentyl-propionyl)-[1,4]diazepane-1-carboxylic acid (4-trifluoromethyl-phenyl)-amide], the agonistic activity result is listed as “agonistic activity”.

Consider `O=C(CCC1CCCC1)N1CCCN(C(=O)NC2CCCCC2)CC1` [4-(3-Cyclopentyl-propionyl)-[1,4]diazepane-1-carboxylic acid cyclohexylamide], for which the agonistic activity result is given as “agonistic activity”.

In the case of `O=C(CCC1CCCC1)N1CCCN(C(=O)NCC2CCCCC2)CC1` [4-(3-Cyclopentyl-propionyl)-[1,4]diazepane-1-carboxylic acid cyclohexylmethyl-amide], the agonistic activity entry was “agonistic activity”.

In the case of `Cc1cccc(NC(=O)N2CCCN(C(=O)CCC3CCCC3)CC2)c1` [4-(3-Cyclopentyl-propionyl)-[1,4]diazepane-1-carboxylic acid m-tolylamide], the agonistic activity entry is listed as “agonistic activity”.

`O=C(CCC1CCCC1)N1CCCN(C(=O)Nc2cccc3ccccc23)CC1` [4-(3-Cyclopentyl-propionyl)-[1,4]diazepane-1-carboxylic acid naphthalen-1-ylamide]: the agonistic activity result is “agonistic activity”.

On to `O=C(CCC1CCCC1)N1CCCN(C(=O)Nc2ccc3ccccc3c2)CC1` [4-(3-Cyclopentyl-propionyl)-[1,4]diazepane-1-carboxylic acid naphthalen-2-ylamide], for which the agonistic activity entry is given as “agonistic activity”.

As to `CCCCc1ccc(NC(=O)N2CCCN(C(=O)CCC3CC3)CC2)cc1` [4-(3-Cyclopropyl-propionyl)-[1,4]diazepane-1-carboxylic acid (4-butyl-phenyl)-amide], the agonistic activity entry is given as “agonistic activity”.

Take `CC(C)c1ccc(NC(=O)N2CCCN(C(=O)CCC3CC3)CC2)cc1` [4-(3-Cyclopropyl-propionyl)-[1,4]diazepane-1-carboxylic acid (4-isopropyl-phenyl)-amide]: the agonistic activity entry was “agonistic activity”.
